Assay [1] relates to atherosclerotic ApoE-deficient mice. Briefly: in vivo MR imaging in atherosclerotic ApoE-deficient mice. The conditions noted are these: images at baseline and in fifteen minute intervals up to sixty minutes after injection, versus scrambled peptides and Magnevist. An excerpt:
An atherosclerotic mice model was run with 12 week old Apoe knockout mice (B6.129P2 Apotem1UNC/J) and control mice (C57BL/J6) were purchased from Jackson Lab. Apoe knockout mice were fed with a high fat diet (60% fat) after arriving and were maintained for 6 months. Control mice were fed with a normal diet (6% fat).
FIG. 1 illustrates in vivo MR images acquired in atherosclerotic ApoE-deficient mice before and after injection of targeted CLTI-(DOTA-Gd)4 or CREKA-(DOTA-Gd)4 and non-targeted controls. Arrows point to atherosclerotic aorta and insets are enlargements of aorta. The images show a baseline image at zero minutes before an injection of contrast agent. The images progress to injection and in fifteen minute intervals up to sixty minutes. The images illustrate targeted peptides, scrambled peptides, and Magnevist.

In assay [2] the test system is orthotopic 4T1 breast tumor. Briefly: in vivo T1-weighted MR imaging of orthotopic 4T1 breast tumor in BALB/c mice. The conditions noted are these: BALB/c mice bearing orthotopic 4T1 breast tumor; 0.03 mmol-Gd/kg; T1 weighted axial 2D gradient images; versus non-targeted scrambled CLT1-(DOTA-Gd)4. As to the method: A […] breast tumor model was also run. A 4T1 cell line was cultured using ATCC complete growth medium. Female Balb/c mice (4-6 weeks old) were purchased from Jackson Lab. The suspension of 4T1 cells in PBS was mixed with Matrigel matrix at 1:1 ratio. The mixture (2×10^6 cells, 100 μL) was surgically implanted in the mammary pad of a mouse when a mouse was approximately 8-10 weeks old.
FIG. 2 illustrates T1-weighted axial 2D gradient images of […] breast cancer tumor. Both CLT1-(DOTA-Gd)4 and non-targeted scrambled CLT1-(DOTA-Gd)4 were investigated in […] BALB/c mice bearing orthotopic 4T1 […] breast tumor. […] The images in row (A) of the targeted CLT1-(DOTA-Gd)4. Images in row (A) illustrate a time sequence of the targeted CLT1-(DOTA-Gd)4. Images in row (B) illustrate the time sequence for non-targeted CLT1-(DOTA-Gd)4.

In assay [3] the test system is orthotopic human prostate tumor. Briefly: in vivo MR imaging of orthotopic human prostate tumor in nu/nu nude athymic mice. The conditions noted are these: nu/nu nude athymic mice bearing orthotopic human prostate tumor; 0.03 mmol-Gd/kg; versus non-targeted scrambled CLT1-(DOTA-Gd)4. The method, then: In animal tumor models […] athymic nu/nu mice (4-6 weeks old), were purchased from the Animal Resource Center (ARC) of Case Western Reserve Universitey. A suspension of PC3 with GFP cells (PC3-GFP) were harvested and suspended in a sterile phosphate-buffered saline solution. The mixture (5×10^5 cells, 25 μL) was surgically inoculated into the ventral prostate through the dorsal prostate.
FIG. 3 illustrates an enhancement ratio and a signal to noise ratio of the targeted CLT1-(DOTA-Gd)4 and non-targeted scrambled CLT1-(DOTA-Gd)4. The MRI contrast agents, targeted CLT1-(DOTA-Gd)4 and non-targeted scrambled CLT1-(DOTA-Gd)4 were administer at 0.03 mmol-Gd/kg in nu/nu nude athymic mice (n=4) bearing orthotopic human prostate tumor.

Take “CLT1-PEG-(Lys)3-(DOTA-Gd)4 [CLT1-(DOTA-Gd)4]”: the “MR contrast enhancement (FIG. 1)” value in assay [1] is “greater and longer enhancement in tumor tissue compared to non-targeted scrambled peptides and controls”. Also, the “MR contrast enhancement in tumor tissue (FIG. 2)” value in assay [2] was “greater and longer enhancement in tumor tissue compared to non-targeted scrambled CLT1-(DOTA-Gd)4”. The “signal intensity within the tumor tissue (enhancement ratio, signal to noise ratio; FIG. 3)” value in assay [3] is “greater enhancement than non-target agents”.
